Results from the supplement of paper PMC10627819.

Legend:
S. aureus DSM 20231 = assay: Bliss interaction score (quartile over a dose matrix) (fitness difference); higher = more antagonism (negative = synergy)
How it was run: (§1)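 The Bliss score is observed minus expected fitness under the product model, reported as quartiles over technical, biological and donor/recipient replicates. Fitness is the OD595 at entry into stationary phase divided by the plate's robust no-drug mean and capped at 1. Single-drug fitness was inferred from combination data.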

B. subtilis 168 [1] = assay: as above
How it was run: as §1

S. aureus Newman = assay: as above
How it was run: as §1

S. pneumoniae D39V [2] = assay: as above
How it was run: as §1

B. subtilis 168 [3] = assay: fitness (endpoint OD595 vs no drug) (fraction); higher = more growth
How it was run: (§2)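 Plates with 384 wells were inoculated at OD595 0.01 using 30 µl of TSB, LB Lennox or CY, or 55 µl for S. pneumoniae. Incubation was at 37 °C, with OD595 measured every 30 min for 14 h. Fitness is the stationary-phase transition optical density over the robust mean of no-drug control wells, after first-reading background subtraction; it is capped at 1.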

S. pneumoniae D39V [4] = assay: as above
How it was run: as §2
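Throughout, for Bliss interaction score (quartile over a dose matrix): first quartile when negative (synergy) and third quartile when positive (antagonism).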

CC1=C(C(=O)O)N2C(=O)[C@@H](NC(=O)[C@H](N)c3ccccc3)[C@H]2SC1 [Cephalexin] + CC(=O)NC[C@H]1CN(c2ccc(N3CCOCC3)c(F)c2)C(=O)O1 [Linezolid]
Conditions | Bliss interaction score
B. subtilis 168 [1] | 0.0768
S. aureus DSM 20231 | 0.0858
S. aureus Newman | 0.106
S. pneumoniae D39V [2] | -0.075

fitness
Conditions | first compound 0.125 µg/mL | first compound 0.25 µg/mL | first compound 0.5 µg/mL | first compound 1 µg/mL | first compound 2 µg/mL | first compound 4 µg/mL
B. subtilis 168 [3], partner 0.125 µg/mL | 0.569 | 0.582 | 0.601 | – | – | –
B. subtilis 168 [3], partner 0.25 µg/mL | 0.121 | 0.119 | 0.117 | – | – | –
B. subtilis 168 [3], partner 0.5 µg/mL | 0.0468 | 0.0463 | 0.0421 | – | – | –
S. pneumoniae D39V [4], partner 0.105 µg/mL | – | – | – | 0.606 | 0.0569 | 0.0509
S. pneumoniae D39V [4], partner 0.21 µg/mL | – | – | – | 0.475 | 0.0291 | 0
S. pneumoniae D39V [4], partner 0.42 µg/mL | – | – | – | 0.332 | 0.0014 | 0.0511

fitness, one replicate
Conditions | first compound 0.125 µg/mL | first compound 0.25 µg/mL | first compound 0.5 µg/mL | first compound 1 µg/mL
B. subtilis 168 [3], partner 0.0625 µg/mL | – | 0.901 | 0.932 | 0.877
B. subtilis 168 [3], partner 0.125 µg/mL | – | – | – | 0.66
B. subtilis 168 [3], partner 0.25 µg/mL | – | – | – | 0.0828
S. pneumoniae D39V [4], partner 0.2 µg/mL | 0.778 | 0.84 | 0.829 | –
S. pneumoniae D39V [4], partner 0.4 µg/mL | 0.667 | 0.707 | 0.726 | –
S. pneumoniae D39V [4], partner 0.8 µg/mL | 0.222 | 0.36 | 0.375 | –

CNC(C)C1CCC(N)C(OC2C(N)CC(N)C(OC3OCC(C)(O)C(NC)C3O)C2O)O1 (configuration not stated) [Gentamicin] + CC(=O)NC[C@H]1CN(c2ccc(N3CCOCC3)c(F)c2)C(=O)O1 [Linezolid]
main component drawn
Conditions | Bliss interaction score
B. subtilis 168 [1] | 0.144
S. aureus DSM 20231 | 0.0779
S. aureus Newman | 0.0901
S. pneumoniae D39V [2] | -0.136

B. subtilis 168 [3], partner 0.0625 µg/mL, one replicate, main component drawn
Conditions | fitness
first compound 0.0625 µg/mL | 0.827
first compound 0.125 µg/mL | 0.0748
first compound 0.25 µg/mL | 0.0626

fitness, S. pneumoniae D39V [4], main component drawn
Conditions | partner 0.105 µg/mL | partner 0.2 µg/mL | partner 0.21 µg/mL | partner 0.4 µg/mL | partner 0.42 µg/mL | partner 0.8 µg/mL
first compound 2 µg/mL | 0.881 | 0.414 | 0.767 | 0.228 | 0.636 | 0.0665
first compound 4 µg/mL | 0.908 | 0.408 | 0.759 | 0.215 | 0.6 | 0.0715
first compound 8 µg/mL | 0.843 | 0.37 | 0.758 | 0.212 | 0.579 | 0.0595

CC[C@H]1OC(=O)[C@H](C)[C@@H](O[C@H]2C[C@@](C)(OC)[C@@H](O)[C@H](C)O2)[C@H](C)[C@@H](O[C@@H]2O[C@H](C)C[C@H](N(C)C)[C@H]2O)[C@](C)(O)C[C@@H](C)CN(C)[C@H](C)[C@@H](O)[C@]1(C)O [Azithromycin] + CN(C)C(=O)C(CCN1CCC(O)(c2ccc(Cl)cc2)CC1)(c1ccccc1)c1ccccc1 [Loperamide]
Conditions | Bliss interaction score
B. subtilis 168 [1] | 0.137
S. aureus DSM 20231 | 0.344
S. aureus Newman | 0.101
S. pneumoniae D39V [2] | 0.131

Conditions | fitness
B. subtilis 168 [3], first compound 1 µg/mL, partner 50 µg/mL | 0.041

CNC(C)C1CCC(N)C(OC2C(N)CC(N)C(OC3OCC(C)(O)C(NC)C3O)C2O)O1 (configuration not stated) [Gentamicin] + C[C@H]1COc2c(N3CCN(C)CC3)c(F)cc3c(=O)c(C(=O)O)cn1c23 [Levofloxacin]
main component drawn
Conditions | Bliss interaction score
B. subtilis 168 [1] | -0.0837
S. aureus DSM 20231 | 0.0527
S. aureus Newman | 0.0894
S. pneumoniae D39V [2] | -0.123

fitness, B. subtilis 168 [3], one replicate, main component drawn
Conditions | first compound 0.0625 µg/mL | first compound 0.125 µg/mL | first compound 0.25 µg/mL
partner 0.001 µg/mL | 0.868 | 0.126 | 0.0524
partner 0.0078 µg/mL | 0.98 | 0.977 | 0.259

main component drawn
Conditions | fitness
B. subtilis 168 [3], first compound 0.0625 µg/mL, partner 0.002 µg/mL | 0.89
B. subtilis 168 [3], first compound 0.0625 µg/mL, partner 0.0039 µg/mL | 0.89
B. subtilis 168 [3], first compound 0.0625 µg/mL, partner 0.0312 µg/mL | 0.0381
B. subtilis 168 [3], first compound 0.0625 µg/mL, partner 0.0625 µg/mL | 0.0442
B. subtilis 168 [3], first compound 0.0625 µg/mL, partner 0.125 µg/mL | 0.0374
B. subtilis 168 [3], first compound 0.125 µg/mL, partner 0.0312 µg/mL | 0.0387
B. subtilis 168 [3], first compound 0.125 µg/mL, partner 0.0625 µg/mL | 0.046
B. subtilis 168 [3], first compound 0.125 µg/mL, partner 0.125 µg/mL | 0.0388
B. subtilis 168 [3], first compound 0.25 µg/mL, partner 0.002 µg/mL | 0.206
B. subtilis 168 [3], first compound 0.25 µg/mL, partner 0.0039 µg/mL | 0.163
B. subtilis 168 [3], first compound 0.25 µg/mL, partner 0.0312 µg/mL | 0.0407
B. subtilis 168 [3], first compound 0.25 µg/mL, partner 0.0625 µg/mL | 0.0447
B. subtilis 168 [3], first compound 0.25 µg/mL, partner 0.125 µg/mL | 0.0485
S. pneumoniae D39V [4], first compound 2 µg/mL, partner 0.1725 µg/mL | 0.98
S. pneumoniae D39V [4], first compound 2 µg/mL, partner 0.2 µg/mL | 0.901
S. pneumoniae D39V [4], first compound 2 µg/mL, partner 0.345 µg/mL | 0.914
S. pneumoniae D39V [4], first compound 2 µg/mL, partner 0.4 µg/mL | 0.75
S. pneumoniae D39V [4], first compound 2 µg/mL, partner 0.69 µg/mL | 0.636
S. pneumoniae D39V [4], first compound 2 µg/mL, partner 0.8 µg/mL | 0.213
S. pneumoniae D39V [4], first compound 4 µg/mL, partner 0.1725 µg/mL | 0.972
S. pneumoniae D39V [4], first compound 4 µg/mL, partner 0.2 µg/mL | 0.874
S. pneumoniae D39V [4], first compound 4 µg/mL, partner 0.345 µg/mL | 0.902
S. pneumoniae D39V [4], first compound 4 µg/mL, partner 0.4 µg/mL | 0.723
S. pneumoniae D39V [4], first compound 4 µg/mL, partner 0.69 µg/mL | 0.625
S. pneumoniae D39V [4], first compound 4 µg/mL, partner 0.8 µg/mL | 0.21
S. pneumoniae D39V [4], first compound 8 µg/mL, partner 0.1725 µg/mL | 0.98
S. pneumoniae D39V [4], first compound 8 µg/mL, partner 0.2 µg/mL | 0.865
S. pneumoniae D39V [4], first compound 8 µg/mL, partner 0.345 µg/mL | 0.912
S. pneumoniae D39V [4], first compound 8 µg/mL, partner 0.4 µg/mL | 0.671
S. pneumoniae D39V [4], first compound 8 µg/mL, partner 0.69 µg/mL | 0.438
S. pneumoniae D39V [4], first compound 8 µg/mL, partner 0.8 µg/mL | 0.179
